In US20220242879A1, “FUSED HETEROCYCLE DERIVATIVES” (Janssen Sciences Ireland Unlimited Company, priority 2019, published 2022):

Key:
[1] = tested on: HBV; test: HBV replication inhibition assay (BDNA assay), HepG2.2.15 cells; format: cell-based, Hepatitis B virus; details: 6 days, HBV DNA in supernatant by branched DNA QuantiGene
Experimental: HBV replication inhibition by the disclosed compounds were determined in cells infected or transfected with HBV or cells with stably integrated HBV, such as HepG2.2.15 cells (Sells et al. 1987). In this example, HepG2.2.15 cells were maintained in cell culture medium containing 10% fetal bovine serum (FBS), Geneticin, L-glutamine, penicillin and streptomycin. HepG2.2.15 cells were seeded in 96-well plates at a density of 40,000 cells/well and were treated with serially diluted compounds at a final DMSO concentration of 0.5% either alone or in combination by adding drugs in a checker box format. […] HBV DNA was denatured by addition of 0.2 M NaOH and detected using a branched DNA (BDNA) QuantiGene assay kit according to manufacturer recommendation (Affymetrix). HBV DNA levels were also quantified using qPCR, based on amplification of encapsidated HBV DNA extraction with QuickExtraction Solution (Epicentre Biotechnologies) and amplification of HBV DNA using HBV specific PCR probes that can hybridize to HBV DNA and a fluorescently labeled probe for quantitation. In addition, cell viability of HepG2.2.15 cells incubated with test compounds alone or in combination was determined by using CellTitre-Glo reagent according to the manufacturer protocol (Promega). […]

[2] = tested on: HepG2.117 cells; test: Cytotoxicity, ATPlite Luminescence Assay; format: cell-based, human; details: mean value; cells incubated for 3 days, viability by ATPlite; read-out: TOX-HepC2.117 CC50
Experimental: Cytotoxicity of the compounds was tested using HepG2 or HepG2.117 cells, incubated for 3 days in the presence of compounds. The viability of the cells was assessed using the PERKIN ELMER ATPlite Luminescence Assay System.”

[3] = tested on: HBV; test: Anti-HBV activity, HepG2.117 cell line, intracellular HBV DNA by real-time PCR; format: cell-based, Hepatitis B virus; details: mean value; HepG2.117 cells, 3 days of treatment, intracellular HBV DNA; read-out: HBV-AVE-HepG2.117 EC50
Experimental: The anti HBV activity was measured using the HepG2.117 cell line, a stable, inducibly HBV producing cell line, which replicates HBV in the absence of doxicycline (Tet-off system). The HepG2 cell line is available from ATCC® under number HB-8065. Transfection of the HepG2 cell line can be as described in Sun and Nassal 2006 Journal of Hepatology 45 (2006) 636-645 “Stable HepG2- and Huh7-based human hepatoma cell lines for efficient regulated expression of infectious hepatitis B virus”.
For the antiviral assay, HBV replication was induced, followed by a treatment with serially diluted compound in 96-well plates. After 3 days of treatment, the antiviral activity was determined by, quantification of intracellular HBV DNA using real-time PCR and an HBV specific primer set and probe.

SMILES	EC50 [1] [nM]	CC50 [2] [nM]	EC50 [3] [nM]
N#Cc1cc(NC(=O)N2CCc3nn4c(c3C2)-c2nocc2CC(COCC(F)F)C4)ccc1F (single isomer, unassigned) [Example 7a, (5R*)-N-(3-Cyano-4-fluorophenyl)-5-((2,2-difluoroethoxy)methyl)-5,6,9,10-tetrahydro-4H-isoxazolo[3,4-c]pyrido[4′,3′:3,4]pyrazolo[1,5-a]azepine-11(12H)-carboxamide]	21	–	–
N#Cc1cc(NC(=O)N2CCc3nn4c(c3C2)-c2nocc2CC(COCC(F)F)C4)ccc1F (single isomer, unassigned) [Example 5a, (5S*)-N-3-Cyano-4-fluorophenyl)-5-(2,2-difluoroethoxy)methyl)-5,6,9,10-tetrahydro-4H-isoxazolo[3,4-c]pyrido[4′,3′:3,4]pyrazolo[1,5-a]azepine-11(12H)-carboxamide]	82	–	–
CNC(=O)[C@@H]1Cc2conc2-c2c3c(nn2C1)C[C@@H](C)N(C(=O)c1ccc(Cl)c(Cl)c1)C3 (single isomer, unassigned) [Compound 47]	–	> 50000	265
